Data reported in patent US6509163B1, “Methods of screening modulators of mammalian P2X7 purinergic receptors” (Glaxo Group Limited, priority 1997, dated 2003).
Like-named read-outs stand apart in the source and are kept apart here.

Columns and labels:
[1] = molecular target: T1, P2X7 receptor (Rattus norvegicus, UniProt Q64663); test: Whole-cell recordings of agonist-evoked currents in HEK293 cells transfected with rat P2X7 cDNA (Example 2); format: cell-based; conditions: for EC50: read-out: EC50 (half-maximal concentration) for current
T1 construct: yielding a construct that encoded the entire P2X7 protein; expressed in transfected cells
T1 sequence (Q64663 1-595): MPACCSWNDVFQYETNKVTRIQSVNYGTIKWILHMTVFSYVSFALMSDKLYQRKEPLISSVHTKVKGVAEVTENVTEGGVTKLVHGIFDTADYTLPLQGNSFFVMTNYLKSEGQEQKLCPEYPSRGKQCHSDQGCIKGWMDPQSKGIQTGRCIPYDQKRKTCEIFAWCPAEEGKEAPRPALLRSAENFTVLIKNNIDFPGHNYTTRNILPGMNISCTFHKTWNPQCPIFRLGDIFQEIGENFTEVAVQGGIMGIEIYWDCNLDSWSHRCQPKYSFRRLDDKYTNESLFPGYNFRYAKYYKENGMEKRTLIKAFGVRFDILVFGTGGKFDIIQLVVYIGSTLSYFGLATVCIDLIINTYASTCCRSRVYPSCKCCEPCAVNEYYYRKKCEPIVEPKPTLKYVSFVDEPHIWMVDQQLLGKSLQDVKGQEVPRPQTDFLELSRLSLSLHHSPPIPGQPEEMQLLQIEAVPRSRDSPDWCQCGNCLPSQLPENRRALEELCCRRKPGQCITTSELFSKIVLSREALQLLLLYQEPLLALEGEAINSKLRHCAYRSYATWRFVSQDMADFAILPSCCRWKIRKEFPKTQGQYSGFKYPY
Method: Whole-cell recordings were obtained at room temperature from HEK293 cells transiently or stably transfected with P2X7 cDNA, from HEK293 cells transiently transfected with P2X7ΔC cDNA, and from J774A.1 cells (American Type Culture Collection, Rockville, Md.). Agonist were applied for periods of 1 to 3 s by a fast-flow U-tube delivery system (Fenwick et al, J. Physiol. (London) 331:577 (1982)). The internal pipette solution was 140 mM cesium-aspartate or potassium-aspartate, 20 mM NaCl, 10 mM EGTA, and 5 mM Hepes: normal external solution was 145 mM NaCl, 2 mM KCl, 2 mM CaCl2, 1 mM MgCl2, 10 mM Hepes, and 12 mM glucose. Low divalent external solution was nominally magnesium-free with 0.3 mM CaCl2. For cells expressing P2X7 receptors and J774 cells, concentration-response curves were constructed in low divalent solution by recording currents in response to 1-s applications of agonist at 8-min intervals with normal external solution present for 6 min before each application. This protocol was necessary to prevent the development of sustained inward currents. Lipofectin was used for transfection (Buell et al, EMBO J. 15:55 (1996)).
Reversal potentals (Erev) were obtained by application of ATP (300 μM) or BzATP (30 μM) while the membrane was held at various potentals or by application of voltage ramps from −120 to 30 or 50 mV. Permeability ratios from (Erev) were calculated by first computing α (=Pna/PK, where P is permeability) for internal (i) and external (o) concentrations [Na]i=20 mM, [Na]o=145 mM, [Ko]=0 mM, and [K]i=140 mM from α={[145/exp(Erev)F/RT −20]}/140 (where F is the Faraday, R is the gas constant, and T is the absolute temperature). Other PK/PNa values, when [X]o=145 mM, [Na]i=20 mM, [K]i=140 mM, and [Na]o=[K]o=[X]i=0 mM, were computed from PK/PNa={[exp (ErevF/RT) (20=140α)}/145. In order of size (FIG. 3C), X was cesium, methylamine, tris(hydroxymethyl)-aminomethane, tetraethylammonium, and N-methyl-D-glucamine. The internal solution also contained 10 mM EGTA and 5 mM Hepes. External solutions also contained 10 mM glucose and normal or low concentrations of divalent cations; pH was maintained at 7.3 with HCl, histidine, or Hepes as required, and the osmolarity of all solutions was 295 to 315.

[2] = molecular target: T2, P2X7ΔC receptor (Rattus norvegicus, UniProt Q64663); test: Whole-cell recordings in HEK293 cells transiently transfected with P2X7ΔC cDNA; format: cell-based; conditions: 30 μM BzATP, normal solution, holding potential −70 mV, transiently transfected HEK cells, n=18
T2 construct: the resulting protein (P2X7ΔC) was P2X7 (1-418); expressed in transfected cells; host or cells: HEK293 (transient)
T2 sequence (Q64663 1-418): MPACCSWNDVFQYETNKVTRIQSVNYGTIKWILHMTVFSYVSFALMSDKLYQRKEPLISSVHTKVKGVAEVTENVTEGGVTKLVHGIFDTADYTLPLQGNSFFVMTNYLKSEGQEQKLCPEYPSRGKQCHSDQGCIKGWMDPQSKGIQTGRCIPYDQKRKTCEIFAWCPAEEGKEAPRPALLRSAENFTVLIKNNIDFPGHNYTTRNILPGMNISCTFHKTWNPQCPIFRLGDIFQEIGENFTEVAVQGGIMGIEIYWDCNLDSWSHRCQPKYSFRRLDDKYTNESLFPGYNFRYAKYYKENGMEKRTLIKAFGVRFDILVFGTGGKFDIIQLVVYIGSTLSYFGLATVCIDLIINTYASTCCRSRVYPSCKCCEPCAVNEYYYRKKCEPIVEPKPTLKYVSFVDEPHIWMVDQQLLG
Text: A 440-base pair (bp) fragment of P2X7 was amplified with inosine-containing degenerate oligonucleotides from several peripheral autonomic ganglia (Buell et al, EMBO J. 15:55 (1996)). […] An additional 468 bp of 5′ cDNA was cloned by rapid amplification of cDNA ends-polymerase chain reaction (RACE-PCR; Life Technologies, Bethesda, MD) using poly(A)^+ RNA from the medial habenula. P2X7 receptor-specific sequences were amplified with two rounds of nested PCR, for which sense primers were […] and […] and antisense primers were […] and […]. A shared restriction site (Bgl II) permitted ligation of the RACE-PCR product and of the partial cDNA, yielding a construct that encoded the entire P2X7 protein. This chimera (GenBank accession number X95882) was expressed in pcDNA3 (Invitrogen, San Diego, Calif.), sequenced by fluorescent DNA sequencing (Perkin Elmer, Foster City, Calif.), and confirmed by isolation of other full-length P2X7 cDNAs from a rat brain cDNA library (Clontech, Palo Alto, Calif.). One of these included a stop codon 130 bp upstream from the ATG. The COOH-terminus was removed by excision of a Xcm I-Not I fragment, and the resulting protein (P2X7ΔC) was P2X7 (1-418). […]

Current amplitude (mean±SEM) to BzATP ([1]; 30 μM BzATP, normal solution, holding potential −70 mV, transiently transfected HEK cells, n=18): 636±118 pA
EC50 ([1]; normal solution (2 mM CaCl2, 1 mM MgCl2), n=4): 7 ± 2 µM
EC50 ([1]; zero magnesium, n=7): 3.7 ± 0.7 µM
Current amplitude (mean±SEM) to BzATP [2]: 590±95 pA
SMILES: Nc1ncnc2c1ncn2[C@@H]1O[C@H](COP(=O)(O)OP(=O)(O)OP(=O)(O)O)[C@@H](OC(=O)c2ccc(C(=O)c3ccccc3)cc2)[C@H]1O [BzATP, 3′-O-(4-benzoyl)benzoyl ATP]
